Patent publication US6812246B2, “Aminoflavone compounds, compositions, and methods of use thereof” (The United States of America as represented by the …, priority 2000, dated 2004)
≈ marks a conversion by molar mass, not a printed value. Like-named read-outs stand apart in the source and are kept apart here.

Key:
[1] = Akama et al., cited from earlier work
[2] = Visual solubility evaluation in buffer at fixed concentration of 5 mg/mL; type: physicochemical; conditions: for solubility: aqueous buffer, water solubility determined visually at fixed concentration of 5 mg/mL
Experimental: This Example illustrates the desirable solubility characteristics of the aminoflavone compounds of the present invention. In Table 2 below, the water solubility of compounds 1a-d of Table 1 are set forth at different pH with a citrate or phosphate buffer, as indicated. Solubility was determined visually at a fixed concentration of 5 mg/mL.

[3] = system: panel of 60 different human tumor cell lines; test: NCI 60 cell-line human tumor screen (sulforhodamine B, 48 hour incubation); type: cell-based; conditions: FIG. 1B; several human cancer cell lines, particularly breast (MCF7), ovarian (OVCAR-5), renal (CAKI-1), colon (SW-620)
Experimental: The NCI screen consists of a panel of 60 different human tumor cell lines against which compounds are tested over a defined range of concentrations to determine the relative degree of growth inhibition or cytotoxicity against each cell line. The design and operation of the screen is such that for each compound tested, both the absolute and relative sensitivities of individual cell lines comprising the screen are sufficiently reproducible that a characteristic profile or “fingerprint” of cellular response is generated. Compounds that are active in the NCI screen show pronounced differential tumor growth-inhibitory and/or cytotoxic effects to the diverse cell lines comprising the 60 cell-line panel. The degree of differential response between the most and least sensitive lines typically may be relatively small (e.g., 2-10 fold), or occasionally as great as 3-4 orders of magnitude. […]
In the screening assay, each agent is tested over a broad concentration range against every cell line in the panel. […] Test compounds are evaluated at five 10-fold dilutions. […] Optical densities are measured on automated plate readers, followed by computerized data acquisition, processing, storage, and availability for display-and analysis. […]

[4] = pH 3, citrate buffer, read-out: Visual solubility, pH 3
[5] = pH 5, citrate buffer, read-out: Visual solubility, pH 5
[6] = pH 7, phosphate buffer, read-out: Visual solubility, pH 7
[7] = pH 3, citrate buffer, 5 mg/mL, visual

Structure (SMILES) | solubility [2, 4] [µg/mL] | solubility [2, 5] [µg/mL] | solubility [2, 6] [µg/mL] | solubility at pH 3 (text summary of Table 2) [2, 7] | solubility at pH 5 (text summary of Table 2) ([2]; pH 5, citrate buffer, 5 mg/mL, visual) | solubility in ethanol ([1]; ethanol, J. Med. Chem., at 2067) [µg/mL] | solubility in water ([1]; water, J. Med. Chem., 41, 2056-2067 (1998)) | tumor growth-inhibiting activity (GI50 mean-graph) [3]
Nc1ccc(-c2cc(=O)c3c(N)c(F)cc(F)c3o2)cc1F [5,4′-diamino-6,8,3′-trifluoroflavone] | – | – | – | – | – | 1200 (≈ 3.92 mM) | less than 0.2 μg/mL | –
Cc1c(F)c(N)c2c(=O)cc(-c3ccc(NC(=O)[C@@H](N)CCCCN)c(F)c3)oc2c1F [Compound 1a, 5-amino-6,8-difluoro-2-(3-fluoro-4-[(L-lysyl)amino]phenyl]-7-methyl-4H-1-benzopyran-4-one] | > 5000 | < 5000 | < 5000 | fully soluble | – | – | – | demonstrated tumor growth-inhibiting activity
Br.Br.Br.Cc1c(F)c(N)c2c(=O)cc(-c3ccc(NC(=O)C(N)CCCNC(=N)N)c(F)c3)oc2c1F (stereo not shown) [Compound 1b, 5-amino-2-[4-[[2-amino-5-guanidinopentanoyl]amino]-3-fluorophenyl]-6,8-difluoro-7-methyl-4H-1-benzopyran-4-one, trihydrobromide] | > 5000 | < 5000 | < 5000 | fully soluble | – | – | – | –

More lines, main results first:

solubility [2, 4] [µg/mL] | solubility [2, 5] [µg/mL] | solubility [2, 6] [µg/mL] | solubility at pH 3 (text summary of Table 2) [2, 7] | solubility at pH 5 (text summary of Table 2) ([2]; pH 5, citrate buffer, 5 mg/mL, visual) | Structure (SMILES) | solubility in ethanol ([1]; ethanol, J. Med. Chem., at 2067) [µg/mL] | solubility in water ([1]; water, J. Med. Chem., 41, 2056-2067 (1998)) | tumor growth-inhibiting activity (GI50 mean-graph) [3]
< 5000 | < 5000 | < 5000 | – | – | Cc1c(F)c(N)c2c(=O)cc(-c3ccc(NC(=O)CN(C)C)c(F)c3)oc2c1F [Compound 1c, 5-amino-6,8-difluoro-7-methyl-2-[4-(dimethylamino)acetamido-3-fluorophenyl]-4H-1-benzopyran-4-one] | – | – | –
> 5000 | > 5000 | < 5000 | fully soluble | fully soluble | Cc1c(F)c(NC(=O)CN(C)C)c2c(=O)cc(-c3ccc(NC(=O)CN(C)C)c(F)c3)oc2c1F [Compound 1d, 6,8-difluoro-7-methyl-5-(dimethylamino)acetamido-2-[4-(dimethylamino)acetamido-3-fluorophenyl]-4H-1-benzopyran-4-one] | – | – | –
